Key:
[1] = in vivo; for Tolerability after repeated dosing: mouse
[2] = test system: PrP^C on the cell surface of human T98G glioblastoma cells; type: cell-based; details: EC50 ratio

Structure (SMILES) | Tolerability after repeated dosing [1] | Brain concentration relative to the EC50 value determined by ELISA ([1]; female, CD-1, mouse) | Potency relative to the bromo analog (IND61769) [2]
NC(=O)c1ccccc1NC(=O)c1cccnc1N1CCCCC1 [IND87406] | well tolerated |  | 
COc1ccc(Cl)cc1C(=O)N1CCN(c2cccc(Cl)c2)CC1 [IND30802] | well tolerated | 100 × | 
O=C(Cc1ccc(-c2ccccc2)cc1)NCc1ccccc1 [IND116065] |  |  | 5 fold
